Experimental data reported in patent publication US20050009124A1, “Assays for detection of phosphoinositide kinase and phosphatase activity” (Echelon Biosciences Incorporated, priority 2001, published 2005).

Columns and labels:
GST-GRP1-PH = molecular target: T1, GST-GRP1-PH (Homo sapiens, UniProt O43739); experiment: Competitive FP assay, displacement of fluorescent tracer from GST-GRP1-PH; format: binding; conditions: amounts over 100-fold greater than PI(3,4,5)P3
T1 construct: The PH domain of GRP1 (general receptor for phosphoinositides) was used as a detector for PI(3,4,5)P3
T1 sequence (O43739 264-381 limits assumed): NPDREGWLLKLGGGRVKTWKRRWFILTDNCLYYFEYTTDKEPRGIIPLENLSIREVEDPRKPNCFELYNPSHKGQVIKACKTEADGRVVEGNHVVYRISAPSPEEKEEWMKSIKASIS
Method: In order to use these reagents in a competitive FP assay, unlabeled phosphoinositide products of an enzymatic reaction must be able to successfully compete with the labeled tracer for interaction with the binding proteins. In addition, the level of cross-reactivity of binding proteins with the phosphoinositides used as enzyme substrates should be minimal. To examine the suitability of these phosphoinositide binding proteins for this application, competition assays were performed using optimal amounts of lipid binding proteins and fluorescent tracers, mixed with increasing amounts of diC8-phosphoinositide competitors.
The sensitivity of this approach for detecting conversion of PI(4,5)P2 to PI(3,4,5)P3 was evaluated using GST-GRP1-PH protein and FAM and BODIPY®-TMR labeled tracers. Competition assays in which both diC8-PI(3,4,5)P3 and diC8-PI(4,5)P2 were added at increasing concentrations were performed.

recombinant PI 3-Kinaseα = recombinant PI 3-Kinaseα (Homo sapiens, UniProt P42336); experiment: Competitive FP assay for PI 3-Kinase activity; format: biochemical; conditions: substrate conversion at constant enzyme levels
Text: The FP assays developed for the detection of PI 3-Kinase and SHIP2 activity were designed as competitive assays in which the enzyme product would compete with a fluorescently labeled synthetic phosphoinositide or inositol phosphate tracer for binding to a specific phosphoinositide binding protein. As the products of the enzymatic reaction increase, the soluble phosphoinositide products compete for the interaction of the binding protein and the fluorescent tracer, leading to a decrease in mP values as the amount of depolarized free tracer increases. Thus, changes in polarization should be inversely proportional to the degree of enzyme activity.
These assays involve four steps. First, the enzyme and substrate phosphoinositide are combined in an appropriate reaction buffer and the reaction is allowed to proceed. […] Finally, polarization values are measured to determine the extent of enzyme activity in the reaction.
The ability of FP competitive assays to detect the production of phosphoinositide products of PI 3-Kinaseα activity was tested using recombinant PI 3-Kinaseα. […] The production of PI(3,4,5)P3 was detected as a decrease in mP values as enzyme products compete with I(1,3,4,5)P4-BODIPY®-TMR for interaction with the binding protein.

[1] = test system: PI(4,5)P2-specific LRP derived from PLCδ; experiment: AlphaScreen binding and competition with PI(4,5)P2-specific LRP; conditions: biotinylated PI(4,5)P2 and PLCδ kept constant
Method: The present invention provides ALPHAScreen™ assays to detect specific binding and competition of phosphoinositide diphosphates using antibodies or LRPs. This approach can be used in competitive assays for the detection of PI(3,4)P2 and PI(4,5)P2 produced by lipid phosphatase or kinase activity. […] Increasing amounts of unlabeled PI(4,5)P2 or PI(3,4,5)P3 were added while levels of PLCδ and PI(4,5)P2 were kept constant. PI(4,5)P2 competition is approximately 90-fold greater than PI(3,4,5)P3 competition, indicating a high degree of specificity for recognition of PI(4,5)P2.

SMQ-Grp1 = molecular target: T2, SMQ-Grp1 (Homo sapiens, UniProt O43739); experiment: Competitive dequenching fluorogenic assay with SMQ-Grp1; format: binding; conditions: increasing amounts of competitor, compared with diC8 PI(3,4,5)P3
T2 construct: small molecular quencher (Dabcyl, QSY 7 or QSY 9); made in house
T2 sequence (O43739 1-400): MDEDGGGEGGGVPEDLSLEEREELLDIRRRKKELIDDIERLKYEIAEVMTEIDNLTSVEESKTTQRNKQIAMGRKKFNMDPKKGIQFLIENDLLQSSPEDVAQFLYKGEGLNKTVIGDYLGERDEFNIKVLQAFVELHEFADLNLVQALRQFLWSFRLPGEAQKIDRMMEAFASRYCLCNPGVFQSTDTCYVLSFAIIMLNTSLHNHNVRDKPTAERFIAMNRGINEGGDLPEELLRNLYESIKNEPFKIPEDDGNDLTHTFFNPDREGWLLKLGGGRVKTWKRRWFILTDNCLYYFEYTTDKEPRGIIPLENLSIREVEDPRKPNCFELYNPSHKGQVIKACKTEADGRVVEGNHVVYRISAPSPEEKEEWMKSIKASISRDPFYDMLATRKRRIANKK
Method: The fluorogenic assays were set up in a black 384-well plate. The combination of 100 nM, 10 nM and 1 nM of SMQ-Grp1 conjugate was incubated with 100 nM, 50 nM and 25 nM BODIPY®-FL-labeled PI(3,4,5)P3. The total assay volume was […] in a PBS buffer at a pH of 7.5. The assay mixture was incubated in the dark for one hour at 25° C. The plate was then transferred to an Alpha Fusion plate reader and read with a 485/520 nm filter. […] For example, if BODIPY®-FL-PI(3,4,5)P3 is fixed at 25 nM, increasing the amount of Dabcyl-Grp1 conjugate (from 1 nM to 100 nM) caused decreasing amounts of fluorescence (FIG. 24). Similar fluorescence quenching profiles were shown for QSY 7-Grp1 and QSY 9-Grp1.
The quenching effects of BODIPY®-FL-PI(3,4,5)P3 by SMQ-Grp1 were specific. diC8 PI(3,4,5)P3 as a competitor antagonized the fluorescence quenching effect of BODIPY®-FL-PI(3,4,5)P3 by SMQ-Grp1 in a dose-response manner. diC8 PI(3,4,5)P3 was used at varying concentrations to compete with BODIPY®-FL-PI(3,4,5)P3 for binding to the SMQ-Grp1 conjugate. […] In each bar graph in FIG. 25, from the right to the left, the bars show the fluorescence reading of PBS as the background, the diC8 PI(3,4,5)P3 only, the SMQ-Grp1 conjugate only, BODIPY®-FL-PI(3,4,5)P3 only, Grp1-SMQ plus BODIPY®-FL-PI(3,4,5)P3, Grp1-SMQ plus BODIPY®-FL-PI(3,4,5)P3 with 10 pmol of diC8 PI(3,4,5)P3 as the competitor, Grp1-SMQ plus BODIPY®-FL-PI(3,4,5)P3 with 100 pmol of diC8 PI(3,4,5)P3 as the competitor, Grp1-SMQ plus BODIPY®-FL-PI(3,4,5)P3 with 1000 pmol of diC8 PI(3,4,5)P3 as the competitor, and Grp1-SMQ plus BODIPY®-FL-PI(3,4,5)P3 with 10000 pmol of diC8 PI(3,4,5)P3 as competitor. […]
Fluorogenic assays were also used to compare competition of diC8 PI(3,4,5)P3 to PI(4,5)P2 and PI(3)P. With increasing amounts of PI(3,4,5)P3 the signal begins to increase, indicating competition, whereas as PI(4,5)P2 and PI(3)P show little change, indicating less competition. […] The production (or presence) of PI(3,4,5)P3 in this assay system corresponds to the elevation of the fluorescence signal.

recombinant PI 3-Kinaseα, sequence (P42336 whole entry): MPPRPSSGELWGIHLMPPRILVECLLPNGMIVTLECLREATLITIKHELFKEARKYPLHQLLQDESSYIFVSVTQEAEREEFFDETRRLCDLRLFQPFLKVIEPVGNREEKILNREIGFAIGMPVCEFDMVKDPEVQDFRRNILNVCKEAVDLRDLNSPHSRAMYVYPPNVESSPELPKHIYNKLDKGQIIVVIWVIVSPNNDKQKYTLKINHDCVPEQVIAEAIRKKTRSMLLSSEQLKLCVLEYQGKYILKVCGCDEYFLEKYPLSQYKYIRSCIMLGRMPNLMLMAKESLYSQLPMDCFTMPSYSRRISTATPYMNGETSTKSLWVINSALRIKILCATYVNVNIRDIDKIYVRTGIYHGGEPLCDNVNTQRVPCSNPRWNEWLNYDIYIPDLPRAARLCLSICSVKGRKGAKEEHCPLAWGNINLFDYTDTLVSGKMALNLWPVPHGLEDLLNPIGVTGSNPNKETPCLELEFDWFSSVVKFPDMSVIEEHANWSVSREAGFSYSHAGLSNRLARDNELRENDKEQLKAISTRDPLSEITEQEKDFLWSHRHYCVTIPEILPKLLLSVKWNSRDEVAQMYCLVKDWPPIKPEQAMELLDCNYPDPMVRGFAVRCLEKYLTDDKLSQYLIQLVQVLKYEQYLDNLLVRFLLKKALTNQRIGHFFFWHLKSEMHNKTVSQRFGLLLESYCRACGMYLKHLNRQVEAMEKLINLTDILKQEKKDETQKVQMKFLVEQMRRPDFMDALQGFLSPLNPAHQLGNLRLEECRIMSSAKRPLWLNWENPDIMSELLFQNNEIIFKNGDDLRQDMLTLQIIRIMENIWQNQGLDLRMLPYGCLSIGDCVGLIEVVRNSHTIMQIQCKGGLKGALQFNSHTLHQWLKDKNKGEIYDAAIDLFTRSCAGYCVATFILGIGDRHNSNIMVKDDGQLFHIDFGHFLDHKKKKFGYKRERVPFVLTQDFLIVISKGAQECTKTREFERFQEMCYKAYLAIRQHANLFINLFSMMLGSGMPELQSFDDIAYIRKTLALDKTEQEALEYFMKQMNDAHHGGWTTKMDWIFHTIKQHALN
recombinant PI 3-Kinaseα, sequence (P27986 whole entry partner): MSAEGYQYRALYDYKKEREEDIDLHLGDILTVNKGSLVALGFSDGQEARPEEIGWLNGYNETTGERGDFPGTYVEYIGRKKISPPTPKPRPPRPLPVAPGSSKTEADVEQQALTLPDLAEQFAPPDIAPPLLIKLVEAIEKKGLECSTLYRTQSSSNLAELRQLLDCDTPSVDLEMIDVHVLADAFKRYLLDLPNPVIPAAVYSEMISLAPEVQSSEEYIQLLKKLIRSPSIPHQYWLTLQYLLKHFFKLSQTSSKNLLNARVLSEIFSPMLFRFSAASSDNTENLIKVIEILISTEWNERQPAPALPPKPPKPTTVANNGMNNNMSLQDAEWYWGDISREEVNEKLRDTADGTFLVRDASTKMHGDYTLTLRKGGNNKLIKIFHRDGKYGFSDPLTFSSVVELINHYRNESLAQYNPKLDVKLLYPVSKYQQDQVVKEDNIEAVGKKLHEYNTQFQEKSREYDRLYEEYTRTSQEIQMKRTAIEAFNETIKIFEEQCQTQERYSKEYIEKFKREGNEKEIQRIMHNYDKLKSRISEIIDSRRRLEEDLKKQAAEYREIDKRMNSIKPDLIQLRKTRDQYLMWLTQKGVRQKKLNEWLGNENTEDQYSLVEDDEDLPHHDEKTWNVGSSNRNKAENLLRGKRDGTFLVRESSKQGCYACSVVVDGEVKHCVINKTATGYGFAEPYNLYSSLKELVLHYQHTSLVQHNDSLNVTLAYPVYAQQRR

| Compound | effect on interaction of binding protein with fluorescent tracers (GST-GRP1-PH) | Km (recombinant PI 3-Kinaseα) [µM] | competition relative to PI(3,4,5)P3 competition [1] | change of fluorescence signal (competition) (SMQ-Grp1) |
| --- | --- | --- | --- | --- |
| CCCCCCCC(=O)OC[C@H](COP(=O)(O)O[C@@H]1[C@H](O)[C@H](O)[C@@H](OP(=O)(O)O)[C@H](OP(=O)(O)O)[C@H]1O)OC(=O)CCCCCCC [diC8-PI(4,5)P2] | minimal effect | ~3 | – | – |
| PI(4,5)P2 | – | – | approximately 90 fold | little change |
